In PubChem BioAssay (NCI):
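Grown in 96-well plates, cells were treated for 48 hours with each compound at five concentrations. Insufficient inhibition: endpoint recorded as highest concentration tested. TGI denotes the concentration required for complete inhibition of growth.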

Key:
Assay in all cases: NCI anticancer screen, dose series, 48 h
SK-MEL-5 melanoma = tested on: SK-MEL-5 melanoma
OVCAR-3 ovarian = tested on: OVCAR-3 ovarian
SF-539 CNS = tested on: SF-539 CNS
MDA-MB-435 = tested on: MDA-MB-435
HL-60(TB) leukemia = tested on: HL-60(TB) leukemia
BT-549 breast = tested on: BT-549 breast
SF-268 CNS = tested on: SF-268 CNS
A549 NSCLC = tested on: A549 NSCLC
M14 melanoma = tested on: M14 melanoma
UO-31 renal = tested on: UO-31 renal
RPMI-8226 leukemia = tested on: RPMI-8226 leukemia
SK-MEL-2 melanoma = tested on: SK-MEL-2 melanoma
COLO 205 colon = tested on: COLO 205 colon
CAKI-1 renal = tested on: CAKI-1 renal
IGROV1 ovarian = tested on: IGROV1 ovarian
SNB-75 CNS = tested on: SNB-75 CNS
NCI/ADR-RES ovarian = tested on: NCI/ADR-RES ovarian
MALME-3M melanoma = tested on: MALME-3M melanoma
U251 CNS = tested on: U251 CNS
DU-145 prostate = tested on: DU-145 prostate
NCI-H522 lung = tested on: NCI-H522 lung
A498 renal = tested on: A498 renal
RXF 393 renal = tested on: RXF 393 renal
SW-620 colon = tested on: SW-620 colon
MDA-N = tested on: MDA-N
OVCAR-4 ovarian = tested on: OVCAR-4 ovarian
PC-3 prostate = tested on: PC-3 prostate
NCI-H460 lung = tested on: NCI-H460 lung
SNB-19 CNS = tested on: SNB-19 CNS
OVCAR-5 ovarian = tested on: OVCAR-5 ovarian
HCC-2998 colon = tested on: HCC-2998 colon
MCF7 breast = tested on: MCF7 breast
OVCAR-8 ovarian = tested on: OVCAR-8 ovarian
CCRF-CEM leukemia = tested on: CCRF-CEM leukemia
HS 578T breast = tested on: HS 578T breast
MOLT-4 leukemia = tested on: MOLT-4 leukemia
MDA-MB-231 breast = tested on: MDA-MB-231 breast
T-47D breast = tested on: T-47D breast
UACC-257 melanoma = tested on: UACC-257 melanoma
EKVX NSCLC = tested on: EKVX NSCLC
SN12C renal = tested on: SN12C renal
UACC-62 melanoma = tested on: UACC-62 melanoma
K-562 leukemia = tested on: K-562 leukemia
SR leukemia = tested on: SR leukemia
SK-MEL-28 melanoma = tested on: SK-MEL-28 melanoma
TK-10 renal = tested on: TK-10 renal
HCT-15 colon = tested on: HCT-15 colon
HOP-92 NSCLC = tested on: HOP-92 NSCLC
LOX IMVI melanoma = tested on: LOX IMVI melanoma
SF-295 CNS = tested on: SF-295 CNS
KM12 colon = tested on: KM12 colon
786-0 renal = tested on: 786-0 renal
ACHN renal = tested on: ACHN renal

SMILES: CCCCCCCCCCCCCCCC(=O)OC(COC(C)=O)CO[P+](=O)O (stereo not drawn)
- TGI (SK-MEL-5 melanoma): > 100 µM
- TGI (OVCAR-3 ovarian): > 100 µM
- TGI (SF-539 CNS): 53.3 µM
- TGI (MDA-MB-435): > 100 µM
- TGI (HL-60(TB) leukemia): > 100 µM
- TGI (BT-549 breast): > 100 µM
- TGI (SF-268 CNS): 49.6 µM
- TGI (A549 NSCLC): 36.5 µM
- TGI (M14 melanoma): 28.4 µM
- TGI (UO-31 renal): 97.1 µM
- TGI (RPMI-8226 leukemia): > 100 µM
- TGI (SK-MEL-2 melanoma): 40.6 µM
- TGI (COLO 205 colon): > 100 µM
- TGI (CAKI-1 renal): > 100 µM
- TGI (IGROV1 ovarian): 59.6 µM
- TGI (SNB-75 CNS): 94 µM
- TGI (NCI/ADR-RES ovarian): 80.8 µM
- TGI (MALME-3M melanoma): > 100 µM
- TGI (U251 CNS): 45.3 µM
- TGI (DU-145 prostate): > 100 µM
- TGI (NCI-H522 lung): 36.2 µM
- TGI (A498 renal): > 100 µM
- TGI (RXF 393 renal): > 100 µM
- TGI (SW-620 colon): > 100 µM
- TGI (MDA-N): > 100 µM
- TGI (OVCAR-4 ovarian): > 100 µM
- TGI (PC-3 prostate): > 100 µM
- TGI (NCI-H460 lung): > 100 µM
- TGI (SNB-19 CNS): > 100 µM
- TGI (OVCAR-5 ovarian): 38.6 µM
- TGI (HCC-2998 colon): 42.7 µM
- TGI (MCF7 breast): > 100 µM
- TGI (OVCAR-8 ovarian): 44.4 µM
- TGI (CCRF-CEM leukemia): > 100 µM
- TGI (HS 578T breast): 36.6 µM
- TGI (MOLT-4 leukemia): 80.7 µM
- TGI (MDA-MB-231 breast): 50.5 µM
- TGI (T-47D breast): > 100 µM
- TGI (UACC-257 melanoma): > 100 µM
- TGI (EKVX NSCLC): > 100 µM
- TGI (SN12C renal): > 100 µM
- TGI (UACC-62 melanoma): > 100 µM
- TGI (K-562 leukemia): > 100 µM
- TGI (SR leukemia): 62 µM
- TGI (SK-MEL-28 melanoma): > 100 µM
- TGI (TK-10 renal): > 100 µM
- TGI (HCT-15 colon): 43.8 µM
- TGI (HOP-92 NSCLC): 34 µM
- TGI (LOX IMVI melanoma): 63.9 µM
- TGI (SF-295 CNS): 35.4 µM
- TGI (KM12 colon): 48.4 µM
- TGI (786-0 renal): 38.9 µM
- TGI (ACHN renal): 92.8 µM
